Reference: ChEMBL document CHEMBL5154846, “Adjusted degradation of BRD4 S and BRD4 L based on fine structural modifications of the pyrrolopyridone scaffold” (Eur J Med Chem, 2022)
Activity calls are given as the source filed them. No cut-off for these calls is given here.

Tests used:
[1] = target: T1, Bromodomain-containing protein 4 (Homo sapiens, UniProt O60885); assay: Inhibition of BRD4-BD1 (unknown origin) preincubated for 30 mins followed by substrate addition and measured after 3 hr by HTRF assay
[2] = target: T1, Bromodomain-containing protein 4; assay: Inhibition of BRD4-BD2 (unknown origin) preincubated for 30 mins followed by substrate addition and measured after 3 hr by HTRF
[3] = target: T1, Bromodomain-containing protein 4; assay: Protac activity at BRD4 short isoform in human MV4-11 cells at 100 nM for 12 hrs by immunoblot analysis; format: cell-based
[4] = target: Bromodomain-containing protein 2 (Homo sapiens) (UniProt P25440); assay: Protac activity at BRD2 in human MV4-11 cells at 100 nM measured after 4 hrs by immunoblot analysis; format: cell-based
Bromodomain-containing protein 2 (Homo sapiens), sequence (P25440 whole entry, looked up): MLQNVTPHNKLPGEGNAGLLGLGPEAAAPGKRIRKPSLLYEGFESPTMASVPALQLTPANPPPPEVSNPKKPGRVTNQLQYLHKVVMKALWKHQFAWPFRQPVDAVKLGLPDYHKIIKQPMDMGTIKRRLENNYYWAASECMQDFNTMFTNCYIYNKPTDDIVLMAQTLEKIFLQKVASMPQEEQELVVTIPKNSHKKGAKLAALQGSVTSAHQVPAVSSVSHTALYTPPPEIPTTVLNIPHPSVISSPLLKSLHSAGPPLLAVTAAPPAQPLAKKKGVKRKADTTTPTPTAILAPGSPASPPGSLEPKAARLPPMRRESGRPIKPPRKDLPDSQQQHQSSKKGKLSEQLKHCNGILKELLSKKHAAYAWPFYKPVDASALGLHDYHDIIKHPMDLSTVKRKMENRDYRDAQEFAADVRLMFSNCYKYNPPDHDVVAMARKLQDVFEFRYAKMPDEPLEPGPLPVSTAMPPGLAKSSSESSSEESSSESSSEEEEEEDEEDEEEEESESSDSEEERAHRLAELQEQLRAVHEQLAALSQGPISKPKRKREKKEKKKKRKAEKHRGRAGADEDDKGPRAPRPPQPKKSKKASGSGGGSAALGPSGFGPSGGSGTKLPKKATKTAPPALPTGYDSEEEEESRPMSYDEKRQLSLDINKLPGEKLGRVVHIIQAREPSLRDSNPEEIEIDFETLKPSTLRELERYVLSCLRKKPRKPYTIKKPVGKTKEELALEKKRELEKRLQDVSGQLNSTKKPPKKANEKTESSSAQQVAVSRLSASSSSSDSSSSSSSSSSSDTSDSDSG

[5] = target: Bromodomain-containing protein 2 (Homo sapiens) (UniProt P25440); assay: Protac activity at BRD2 in human MV4-11 cells at 100 nM measured after 24 hrs by immunoblot analysis; format: cell-based
[6] = target: Bromodomain-containing protein 3 (Homo sapiens) (UniProt Q15059); assay: Protac activity at BRD3 in human MV4-11 cells at 100 nM measured after 4 hrs by immunoblot analysis; format: cell-based
Bromodomain-containing protein 3 (Homo sapiens), sequence (Q15059 2-726 limits assumed): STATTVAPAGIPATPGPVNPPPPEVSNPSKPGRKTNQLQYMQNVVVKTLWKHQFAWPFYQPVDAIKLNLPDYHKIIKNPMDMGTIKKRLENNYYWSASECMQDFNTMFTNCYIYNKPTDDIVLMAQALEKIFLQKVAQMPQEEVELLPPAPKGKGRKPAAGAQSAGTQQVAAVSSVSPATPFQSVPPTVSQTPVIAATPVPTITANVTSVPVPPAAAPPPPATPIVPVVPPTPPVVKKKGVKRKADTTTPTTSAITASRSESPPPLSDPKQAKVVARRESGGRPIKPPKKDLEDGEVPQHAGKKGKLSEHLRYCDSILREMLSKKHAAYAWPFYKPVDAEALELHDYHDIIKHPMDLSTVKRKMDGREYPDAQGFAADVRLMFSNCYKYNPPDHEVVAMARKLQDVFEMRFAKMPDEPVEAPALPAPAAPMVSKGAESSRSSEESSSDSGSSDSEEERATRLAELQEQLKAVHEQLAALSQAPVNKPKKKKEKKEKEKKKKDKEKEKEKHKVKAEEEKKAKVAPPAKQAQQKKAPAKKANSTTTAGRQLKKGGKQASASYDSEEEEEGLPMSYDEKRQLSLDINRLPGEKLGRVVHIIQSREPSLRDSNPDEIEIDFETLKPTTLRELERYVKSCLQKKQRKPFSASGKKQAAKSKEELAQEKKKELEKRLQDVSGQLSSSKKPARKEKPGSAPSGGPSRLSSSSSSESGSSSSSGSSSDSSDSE

[7] = target: Bromodomain-containing protein 3 (Homo sapiens) (UniProt Q15059); assay: Protac activity at BRD3 in human MV4-11 cells at 100 nM measured after 24 hrs by immunoblot analysis; format: cell-based
[8] = target: T1, Bromodomain-containing protein 4; assay: Protac activity at BRD4 short isoform in human MV4-11 cells at 100 nM for 24 hrs by immunoblot analysis; format: cell-based
MV4-11 [9] = assay: Antiproliferative activity against human MV4-11 cells incubated for 72 hrs by CCK8 assay; format: functional, cell-based; conditions: MV4-11, 72 h
MV4-11 [10] = assay: Cell cycle arrest in human MV4-11 cells assessed as accumulation at G2/M phase at 0.1 uM for 24 hrs by PI/RNase staining based flow cytometry analysis; format: functional
MV4-11 [11] = assay: Anti-proliferative activity in human MV4-11 cells assessed as downregulation of c-myc levels at 10 to 1000 nM incubated for 4 hrs by western blot analysis; format: functional, cell-based; conditions: dose 10-1000 nM
MV4-11 [12] = assay: Anti-proliferative activity in human MV4-11 cells assessed as downregulation of c-myc levels at 100 nM incubated for 24 hrs by western blot analysis; format: functional, cell-based

| Structure (SMILES) | IC50 [1] [nM] | IC50 [2] [nM] | Activity [3] | Activity [4] | Activity [5] | Activity [6] | Activity [7] | Activity [8] | IC50 (MV4-11 [9]) [nM] | Activity (MV4-11 [10]) | Activity (MV4-11 [11]) | Activity (MV4-11 [12]) |
| --- | --- | --- | --- | --- | --- | --- | --- | --- | --- | --- | --- | --- |
| Cn1cc(-c2ccccc2Oc2ccccc2)c2cc(C(=O)NCc3ccc(C(=O)NCCCCNc4cccc5c4C(=O)N(C4CCC(=O)NC4=O)C5=O)cc3)[nH]c2c1=O (stereo unspecified) | 34.6 | 27.2 | Active | Active | Active | Active | Active | Active | – | – | – | – |
| Cn1cc(-c2ccccc2Oc2ccccc2)c2cc(C(=O)NCCCCCCNc3cccc4c3C(=O)N(C3CCC(=O)NC3=O)C4=O)[nH]c2c1=O (stereo unspecified) | 441 | 39.4 | – | Active | Active | Active | Active | Active | – | – | – | – |
| Cn1cc(-c2ccccc2Oc2ccccc2)c2cc(C(=O)NCCCCCC(=O)NCCCCNc3cccc4c3C(=O)N(C3CCC(=O)NC3=O)C4=O)[nH]c2c1=O (stereo unspecified) | 278 | 38.8 | – | Active | Active | Active | Active | Active | – | – | – | – |
| COc1cc(C(=O)NCCOCCOCCOCCNC(=O)C[C@@H]2N=C(c3ccc(Cl)cc3)c3c(sc(C)c3C)-n3c(C)nnc32)ccc1NC(=O)[C@@H]1N[C@@H](CC(C)(C)C)[C@](C#N)(c2ccc(Cl)cc2F)[C@H]1c1cccc(Cl)c1F | – | – | – | – | – | – | – | Active | – | – | – | – |
| CCNC(=O)c1cc2c(-c3cc(C(C)(C)O)ccc3Oc3c(C)cc(F)cc3C)cn(C)c(=O)c2[nH]1 [ABBV-744] | – | – | – | – | – | – | – | – | 153 | – | – | – |
| Cc1sc2c(c1C)C(c1ccc(Cl)cc1)=N[C@@H](CC(=O)NCCCCCCCCNC(=O)COc1cccc3c1C(=O)N(C1CCC(=O)NC1=O)C3=O)c1nnc(C)n1-2 (stereo partly specified) | – | – | – | Active | Active | Active | Active | – | 10.3 | Active | Active | Active |
| Cn1cc(-c2ccccc2Oc2ccccc2)c2cc(C(=O)NCCCCCCC(=O)NCCCCNc3cccc4c3C(=O)N(C3CCC(=O)NC3=O)C4=O)[nH]c2c1=O (stereo unspecified) | 332 | 35.7 | – | Active | Active | Active | Active | Active | – | – | – | – |
| Cn1cc(-c2ccccc2Oc2ccccc2)c2cc(C(=O)NCCCCNc3cccc4c3C(=O)N(C3CCC(=O)NC3=O)C4=O)[nH]c2c1=O (stereo unspecified) | 472 | 84.9 | – | Active | Active | Active | Active | Active | – | – | – | – |
| Cn1cc(-c2ccccc2Oc2ccccc2)c2cc(C(=O)NCCCCC(=O)NCCCCNc3cccc4c3C(=O)N(C3CCC(=O)NC3=O)C4=O)[nH]c2c1=O (stereo unspecified) | 185 | 24.3 | – | Active | Active | Active | Active | Active | – | – | – | – |

Second part, led by results:

| IC50 [1] [nM] | IC50 [2] [nM] | Activity [3] | Activity [4] | Activity [5] | Activity [6] | Activity [7] | Activity [8] | IC50 (MV4-11 [9]) [nM] | Structure (SMILES) | Activity (MV4-11 [10]) | Activity (MV4-11 [11]) | Activity (MV4-11 [12]) |
| --- | --- | --- | --- | --- | --- | --- | --- | --- | --- | --- | --- | --- |
| 241 | 74.1 | – | – | – | – | – | Active | – | C=C(C)c1ccc(Oc2ccccc2)c(-c2cn(C)c(=O)c3[nH]c(C(=O)NCc4ccc(C(=O)NCCCCNc5cccc6c5C(=O)N(C5CCC(=O)NC5=O)C6=O)cc4)cc23)c1 (stereo unspecified) | – | – | – |
| 99.8 | 296 | – | – | – | – | – | – | – | Cn1cc(-c2ccccc2)c2cc(C(=O)NCc3ccc(C(=O)NCCCCNc4cccc5c4C(=O)N(C4CCC(=O)NC4=O)C5=O)cc3)[nH]c2c1=O (stereo unspecified) | – | – | – |
| 54.3 | 96.4 | Active | – | – | – | – | Active | – | Cn1cc(-c2ccccc2OC2CC2)c2cc(C(=O)NCc3ccc(C(=O)NCCCCNc4cccc5c4C(=O)N(C4CCC(=O)NC4=O)C5=O)cc3)[nH]c2c1=O (stereo unspecified) | – | – | – |
| 24.6 | 13.9 | – | – | – | – | – | – | – | CC(C)Oc1ccc(C(C)(C)O)cc1-c1cn(C)c(=O)c2[nH]c(C(=O)NCc3ccc(C(=O)NCCCCNc4cccc5c4C(=O)N(C4CCC(=O)NC4=O)C5=O)cc3)cc12 (stereo unspecified) | – | – | – |
| 45.4 | 73 | – | – | – | – | – | – | – | Cn1cc(-c2cccc(C(C)(C)O)c2)c2cc(C(=O)NCc3ccc(C(=O)NCCCCNc4cccc5c4C(=O)N(C4CCC(=O)NC4=O)C5=O)cc3)[nH]c2c1=O (stereo unspecified) | – | – | – |
| 29.5 | 3.82 | – | – | – | – | – | – | – | Cn1cc(-c2cc(C(C)(C)O)ccc2Oc2ccccc2)c2cc(C(=O)NCc3ccc(C(=O)NCCCCNc4cccc5c4C(=O)N(C4CCC(=O)NC4=O)C5=O)cc3)[nH]c2c1=O (stereo unspecified) | – | – | – |
| 83.7 | 91.5 | – | – | – | – | – | Active | – | CC(C)Oc1ccccc1-c1cn(C)c(=O)c2[nH]c(C(=O)NCc3ccc(C(=O)NCCCCNc4cccc5c4C(=O)N(C4CCC(=O)NC4=O)C5=O)cc3)cc12 (stereo unspecified) | – | – | – |
| 22.7 | 7.79 | – | – | – | – | – | – | – | Cn1cc(-c2cc(C(C)(C)O)ccc2OC2CC2)c2cc(C(=O)NCc3ccc(C(=O)NCCCCNc4cccc5c4C(=O)N(C4CCC(=O)NC4=O)C5=O)cc3)[nH]c2c1=O (stereo unspecified) | – | – | – |
| 119 | 101 | – | – | – | – | – | Active | – | C=C(C)c1ccc(OC(C)C)c(-c2cn(C)c(=O)c3[nH]c(C(=O)NCc4ccc(C(=O)NCCCCNc5cccc6c5C(=O)N(C5CCC(=O)NC5=O)C6=O)cc4)cc23)c1 (stereo unspecified) | – | – | – |
